Measurements as given in US9790217B2, “Pyridinyloxy- and phenyloxy-pyrazolyl compounds” (Hoffmann-La Roche Inc., priority 2014, dated 2017).

What was measured:
human CYP11B1 = human CYP11B1 (Homo sapiens (Human), UniProt P15538); test: G-402 cellular enzyme assay, human CYP11B1 (cortisol release, HTRF); assay type: cell-based; details: G-402 cells expressing human CYP11B1; 1 μM Deoxycortisol
Source text: (§1) Herein we identified the use of the G-402 cell line as a host cell to ectopically express (transiently or stably) enzymes of the CYP11 family. Specifically we developed stable G-402 cells expressing ectopically human CYP11B1, human CYP11B2, human CYP11A1, cynmolgus CYP11B1 or cynomolgus CYP11B2 enzyme activity. Importantly the identified cell line G-402 expresses co-factors (adrenodoxin and adrenodoxin reductase) important for the activity of the CYP11 family and no relevant enzyme activity of the CYP11 family (in comparison to H295R cells) was detected in these cells. Therefore the G-402 cell line is uniquely suited as a host cell for the ectopic expression of enzymes from the CYP11 family.
(§2) G-402 cells can be obtained from ATCC (CRL-1440) and were originally derived from a renal leiomyoblastoma.
(§3) The expression plasmids contains the ORF for either human/cyno CYP11B1 or CYP11B2 under the control of a suitable promoter (CMV-promoter) and a suitable resistance marker (neomycin). Using standard techniques the expression plasmid is transfected into G-402 cells and these cells are then selected for expressing the given resistance markers. Individual cell-clones are then selected and assessed for displaying the desired enzymatic activity using 11-Deoxycorticosterone (Cyp11B2) or 11-Deoxycortisol (Cyp11B1) as a substrate.
(§4) G-402 cells expressing CYP11 constructs were established as described above and maintained in McCoy's 5a Medium Modified, ATCC Catalog No. 30-2007 containing 10% FCS and 400 μg/ml G418 (Geneticin) at 37° C. under an atmosphere of 5% CO2/95% air. Cellular enzyme assays were performed in DMEM/F12 medium containing 2.5% charcoal treated FCS and appropriate concentration of substrate (0.3-10 uM 11-Deoxycorticosterone, 11-Deoxycortisol or Corticosterone). For assaying enzymatic activity, cells were plated onto 96 well plates and incubated for 16 h. An aliquot of the supernatant is then transferred and analyzed for the concentration of the expected product (Aldosterone for CYP11B2; Cortisol for CYP11B1). The concentrations of these steroids can be determined using HTRF assays from CisBio analyzing either Aldosterone or Cortisol.
(§5) Inhibition of the release of produced steroids can be used as a measure of the respective enzyme inhibition by test compounds added during the cellular enzyme assay. The dose dependent inhibition of enzymatic activity by a compound is calculated by means of plotting added inhibitor concentrations (x-axes) vs. measured steroid/product level (y-axes). The inhibition is then calculated by fitting the following 4-parameter sigmoidal function (Morgan-Mercer-Flodin (MMF) model) to the raw data points using the least squares method:
(§6) [formula] wherein, A is the maximum y value, B is the EC50 factor determined using XLFit, C is the minimum y value and D is the slope value.
(§7) EC50 values for compounds claimed herein were tested with the G402-based assay system described. Cyp11B2 enzyme activity was tested in presence of 1 μM Deoxycorticosterone and variable amounts of inhibitors; Cyp11B1 enzyme activity was tested in presence of 1 μM Deoxycortisol and variable amounts of inhibitors.

human CYP11B2 = human CYP11B2 (Homo sapiens (Human), UniProt P19099); test: G-402 cellular enzyme assay, human CYP11B2 (aldosterone release, HTRF); assay type: cell-based; details: G-402 cells expressing human CYP11B2; 1 μM Deoxycorticosterone
Source text: as §1, §2, §3, §4, §5, §6, §7

Chain of human CYP11B2 (P19099 25-503): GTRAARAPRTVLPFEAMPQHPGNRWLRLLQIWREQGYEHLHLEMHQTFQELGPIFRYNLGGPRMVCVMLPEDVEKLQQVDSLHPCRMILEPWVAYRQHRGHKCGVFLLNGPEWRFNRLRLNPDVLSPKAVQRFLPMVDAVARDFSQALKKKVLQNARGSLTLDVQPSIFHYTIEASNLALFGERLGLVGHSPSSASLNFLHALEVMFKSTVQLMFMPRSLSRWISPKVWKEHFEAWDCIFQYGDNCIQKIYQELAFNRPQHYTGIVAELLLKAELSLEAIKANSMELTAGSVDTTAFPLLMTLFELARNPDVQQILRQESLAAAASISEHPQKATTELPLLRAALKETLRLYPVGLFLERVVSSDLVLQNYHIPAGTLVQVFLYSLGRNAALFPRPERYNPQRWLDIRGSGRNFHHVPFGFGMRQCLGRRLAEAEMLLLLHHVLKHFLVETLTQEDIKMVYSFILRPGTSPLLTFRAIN
Chain of human CYP11B1 (P15538 25-503): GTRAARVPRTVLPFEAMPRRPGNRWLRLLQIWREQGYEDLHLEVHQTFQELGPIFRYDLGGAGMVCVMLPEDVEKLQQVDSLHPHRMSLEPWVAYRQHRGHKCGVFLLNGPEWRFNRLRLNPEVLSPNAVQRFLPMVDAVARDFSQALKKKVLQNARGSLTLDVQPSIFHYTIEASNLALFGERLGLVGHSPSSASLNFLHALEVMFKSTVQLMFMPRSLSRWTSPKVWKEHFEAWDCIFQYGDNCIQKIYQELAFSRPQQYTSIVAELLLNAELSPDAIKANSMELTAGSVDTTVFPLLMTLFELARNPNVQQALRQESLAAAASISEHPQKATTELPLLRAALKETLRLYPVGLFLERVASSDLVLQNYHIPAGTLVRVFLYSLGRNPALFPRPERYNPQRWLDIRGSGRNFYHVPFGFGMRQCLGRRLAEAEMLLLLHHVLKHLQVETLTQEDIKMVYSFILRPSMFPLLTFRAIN

SMILES | EC50 (human CYP11B1) | EC50 (human CYP11B2)
CC(=O)N1CCC(Oc2cccc(-c3[nH]ncc3Oc3ccc(C#N)cc3)c2)C1 (racemic) [Example 58, (rac)-4-[[3-[3-(1-Acetylpyrrolidin-3-yl)oxyphenyl]-1H-pyrazol-4-yl]oxy]benzonitrile] | 1510 nM | 215 nM
CC(=O)N1CCCC(c2[nH]ncc2Oc2ccc(C#N)cc2)C1 (racemic) [Example 62, (rac)-4-[[3-(1-Acetylpiperidin-3-yl)-1H-pyrazol-4-yl]oxy]benzonitrile] | 2280 nM | 370 nM
Cn1cc(C(=O)N2CCCC(c3[nH]ncc3Oc3ccc(C#N)cc3)C2)cn1 (racemic) [Example 63, (rac)-4-[[3-[1-(1-Methylpyrazole-4-carbonyl)piperidin-3-yl]-1H-pyrazol-4-yl]oxy]benzonitrile] | 6470 nM | 150 nM
N#Cc1ccc(Oc2cn[nH]c2C2CCCN(C(=O)c3cccnc3)C2)cc1 (racemic) [Example 64, (rac)-4-[[3-[1-(Pyridine-3-carbonyl)piperidin-3-yl]-1H-pyrazol-4-yl]oxy]benzonitrile] | 8160 nM | 405 nM
N#Cc1ccc(Oc2cn[nH]c2C2CCCN(C(=O)c3ccccn3)C2)cc1 (racemic) [Example 65, (rac)-4-[[3-[1-(Pyridine-2-carbonyl)piperidin-3-yl]-1H-pyrazol-4-yl]oxy]benzonitrile] | 5910 nM | 1410 nM
Cn1cc(C(=O)N2CCCC(c3[nH]ncc3Oc3ccc(C#N)cc3F)C2)cn1 (racemic) [Example 89, (rac)-3-Fluoro-4-[[5-[1-(1-methylpyrazole-4-carbonyl)piperidin-3-yl]-1H-pyrazol-4-yl]oxy]benzonitrile] | 7760 nM | 231 nM
N#Cc1ccc(Oc2cn[nH]c2C2CCCN(C(=O)c3cccnc3)C2)c(F)c1 (racemic) [Example 91, (rac)-3-Fluoro-4-[[3-[1-(pyridine-3-carbonyl)piperidin-3-yl]-1H-pyrazol-4-yl]oxy]benzonitrile] | 9010 nM | 1260 nM
Fc1cccc(-c2[nH]ncc2Oc2ccc(Cl)cc2)c1F [Example 1, 4-(4-Chlorophenoxy)-5-(2,3-difluorophenyl)-1H-pyrazole] | 1030 nM | 29.8 nM
COc1ccc(Oc2cn[nH]c2-c2ccc(Cl)cc2)cc1 [Example 2, 3-(4-Chlorophenyl)-4-(4-methoxyphenoxy)-1H-pyrazole] | 1970 nM | 463 nM
Clc1ccc(Oc2cn[nH]c2-c2ccc(Cl)cc2)cc1 [Example 3, 4-(4-Chlorophenoxy)-3-(4-chlorophenyl)-1H-pyrazole] | 1380 nM | 323 nM
COc1ccccc1-c1[nH]ncc1Oc1ccc(Cl)cc1 [Example 4, 4-(4-Chlorophenoxy)-3-(2-methoxyphenyl)-1H-pyrazole] | 1.3 nM | 0.1 nM
COc1ccc(-c2[nH]ncc2Oc2ccc(Cl)cc2)c(OC)c1 [Example 5, 4-(4-Chlorophenoxy)-3-(2,4-dimethoxyphenyl)-1H-pyrazole] | 11.6 nM | 2.5 nM
Clc1ccc(Oc2cn[nH]c2-c2ccccc2Cl)cc1 [Example 6, 4-(4-Chlorophenoxy)-5-(2-chlorophenyl)-1H-pyrazole] | 51.8 nM | 2.6 nM
FC(F)(F)Oc1ccccc1-c1[nH]ncc1Oc1ccc(Cl)cc1 [Example 7, 4-(4-Chlorophenoxy)-5-[2-(trifluoromethoxy)phenyl]-1H-pyrazole] | 861 nM | 24.4 nM
FC(F)Oc1ccccc1-c1[nH]ncc1Oc1ccc(Cl)cc1 [Example 8, 4-(4-Chlorophenoxy)-5-[2-(difluoromethoxy)phenyl]-1H-pyrazole] | 75.7 nM | 4 nM
Fc1ccccc1-c1[nH]ncc1Oc1ccc(Cl)cc1 [Example 9, 4-(4-Chlorophenoxy)-5-(2-fluorophenyl)-1H-pyrazole] | 167 nM | 7.9 nM

SMILES | EC50 (human CYP11B1) | EC50 (human CYP11B2)
COc1ccc(Cl)cc1-c1[nH]ncc1Oc1ccc(Cl)cc1 [Example 10, 3-(5-Chloro-2-methoxyphenyl)-4-(4-chlorophenoxy)-1H-pyrazole] | 835 nM | 60.8 nM
Fc1cc(Cl)ccc1-c1[nH]ncc1Oc1ccc(Cl)cc1 [Example 11, 5-(4-Chloro-2-fluorophenyl)-4-(4-chlorophenoxy)-1H-pyrazole] | 433 nM | 45.8 nM
CS(=O)(=O)c1ccc(-c2[nH]ncc2Oc2ccc(Cl)cc2)cc1 [Example 12, 4-(4-Chlorophenoxy)-5-(4-methylsulfonylphenyl)-1H-pyrazole] | 600 nM | 26.4 nM
Fc1cc(C(F)(F)F)ccc1-c1[nH]ncc1Oc1ccc(Cl)cc1 [Example 13, 4-(4-Chlorophenoxy)-5-[2-fluoro-4-(trifluoromethyl)phenyl]-1H-pyrazole] | 2470 nM | 408 nM
FC(F)(F)c1ccc(-c2[nH]ncc2Oc2ccc(Cl)cc2)cc1 [Example 14, 4-(4-Chlorophenoxy)-5-[4-(trifluoromethyl)phenyl]-1H-pyrazole] | 2670 nM | 2030 nM
Fc1ccc(-c2[nH]ncc2Oc2ccc(Cl)cc2)c(F)c1 [Example 15, 4-(4-Chlorophenoxy)-5-(2,4-difluorophenyl)-1H-pyrazole] | 159 nM | 18.6 nM
CS(=O)(=O)c1ccc(-c2[nH]ncc2Oc2ccc(C(F)(F)F)cc2)cc1 [Example 16, 5-(4-Methylsulfonylphenyl)-4-[4-(trifluoromethyl)phenoxy]-1H-pyrazole] | 1970 nM | 84.5 nM
CSc1ccc(-c2[nH]ncc2Oc2ccc(Cl)cc2)c(Cl)c1 [Example 17, 5-(2-Chloro-4-methylsulfanylphenyl)-4-(4-chlorophenoxy)-1H-pyrazole] | 522 nM | 60.8 nM
CS(=O)(=O)c1ccc(-c2[nH]ncc2Oc2ccc(C#N)cc2)cc1 [Example 18, 4-[[5-(4-Methylsulfonylphenyl)-1H-pyrazol-4-yl]oxy]benzonitrile] | 462 nM | 23.9 nM
Clc1ccc(Oc2cn[nH]c2-c2ccccc2Cl)cn1 [Example 19, 2-Chloro-5-[[5-(2-chlorophenyl)-1H-pyrazol-4-yl]oxy]pyridine] | 387 nM | 113 nM
Cc1ccc(Oc2cn[nH]c2-c2ccccc2Cl)cn1 [Example 20, 5-[[5-(2-Chlorophenyl)-1H-pyrazol-4-yl]oxy]-2-methylpyridine] | 3390 nM | 311 nM
Fc1cccc(Oc2cn[nH]c2-c2ccc(Cl)cc2Cl)n1 [Example 21, 2-[[5-(2,4-Dichlorophenyl)-1H-pyrazol-4-yl]oxy]-6-fluoropyridine] | 841 nM | 101 nM
Cc1cccc(Oc2c[nH]nc2-c2ccc(Cl)cc2Cl)n1 [Example 22, 2-[[3-(2,4-Dichlorophenyl)-1H-pyrazol-4-yl]oxy]-6-methylpyridine] | 611 nM | 42.1 nM
FC(F)(F)c1ccc(Oc2cn[nH]c2-c2ccccc2Cl)cc1 [Example 23, 5-(2-Chlorophenyl)-4-[4-(trifluoromethyl)phenoxy]-1H-pyrazole] | 723 nM | 26.8 nM
Fc1cc(Cl)ccc1Oc1cn[nH]c1-c1ccccc1Cl [Example 24, 4-(4-Chloro-2-fluorophenoxy)-5-(2-chlorophenyl)-1H-pyrazole] | 350 nM | 10.2 nM
